What all share (assay type): cell-based
One assay relates to HeLa (ovarian cancer). Put plainly: MTT antiproliferative assay, HeLa. The note with it: Homo sapiens, 48 or 72 h, read-out: inhibition of cell growth, HELA. The procedure:
(§1) The antiproliferative activity of a test compound was determined in cell lines: MDA-MB-231 (breast cancer), HepG2 (liver cancer), SW620 (colon cancer), A375 (malignant melanoma), A431 (epidermoid carcinoma), A549 (lung adenocarcinoma), and HeLa ([…]). MDA-MB-231, HepG2, SW480, SW620, A375, and A431 cells were cultured in Dulbecco's modified Eagle's medium (DMEM) containing 10% fetal bovine serum (FBS). HeLa cells were cultured in MEM/EBSS (MEM) containing 10% FBS. A549 cells were maintained in Kaighn's modification of Ham's F-12 medium containing 10% FBS. The colorimetric MTT (3-(4,5-dimethylthiazol-2-yl)-2,5-diphenyltetrazolium bromide) assay was used to measure the cell viability of different cells following treatment with the test compound.
(§2) Briefly cells were seeded in a 96 well plate at a density of 2,000-5,000 cells/well. Following attachment, the cells were treated with the test compound in media at various concentrations ranging from 0.137 to 100 μM or at a single concentration of 10 μM. After the cells were incubated at 37° C. for 48 or 72 h, MTT (20 μL, 5 mg/mL in PBS) was added to each well and the cells were incubated for another 4 h at 37° C. The supernatant was removed carefully and 150 μL of DMSO was added to each well to dissolve the MTT formazan crystals. The plate was shaken for 15-20 min and the absorbance value of each well was determined using a multi-well plate reader at 490 nm. The wells treated with DMSO were taken as a vehicle control. Data were also obtained similarly for all the replicates and the percentage viability was determined with respect to the DMSO-treated cells. The results are summarized in Table 1 below, wherein A represents no less than 80% inhibition of cell growth at 10 μM; B represents no less than 50% but less than 80% inhibition of cell growth at 10 μM; C represents no less than 30% but less than 50% inhibition of cell growth at 10 μM; and D represents less than 30% inhibition of cell growth at 10 μM.
A general note: Formazan colour is commonly taken as a measure of viable cells.

Assay [1] concerns MDA-MB-231 (breast cancer). Put plainly: MTT antiproliferative assay, MDA-MB-231. The note with it: Homo sapiens, MDA-MB-231, 10 μM, 48 or 72 h, read-out: inhibition of cell growth, MDA-MB-231. The protocol: as §1, §2
Another assay has as its system SW620 (colon cancer). Put plainly: MTT antiproliferative assay, SW620. As to conditions: Homo sapiens, SW-620, SW620, 10 μM, 48 or 72 h, read-out: inhibition of cell growth, SW620. The protocol: as §1, §2
In assay [2] the test system is A549 (lung adenocarcinoma). Briefly: MTT antiproliferative assay, A549. As to conditions: Homo sapiens, A549, 10 μM, 48 or 72 h, read-out: inhibition of cell growth, A549. The procedure:
as §1, §2

Assay [3] has as its system A375 (malignant melanoma). Put plainly: MTT antiproliferative assay, A375. As to conditions: Homo sapiens, A-375, A375, 10 μM, 48 or 72 h, read-out: inhibition of cell growth, A375. The procedure:
as §1, §2

Assay [4] deals with A431 (epidermoid carcinoma). Briefly: MTT antiproliferative assay, A431. The note with it: Homo sapiens, A-431, A431, 10 μM, 48 or 72 h, read-out: inhibition of cell growth, A431. The procedure:
as §1, §2

The subject of the next assay is HepG2 (liver cancer). Put plainly: MTT antiproliferative assay, HepG2. The note with it: Homo sapiens, HepG2, 10 μM, 48 or 72 h, read-out: inhibition of cell growth, HepG2. The procedure: as §1, §2

Consider `CO[C@]1(C)C(=O)C(=O)C=C2C1=CC=C1[C@@]2(C)CC[C@@]2(C)[C@@H]3C[C@](C)(C(=O)N(C)C)CC[C@]3(C)CC[C@]12C` [Compound A13, (2R,4aS,6aS,9S,12bR,14aS,14bR)-9-methoxy-N,N,2,4a,6a,9,12b,14a-octamethyl-10,11-dioxo-1,2,3,4,4a,5,6,6a,9,10,11,12b,13,14,14a,14b-hexadecahydropicene-2-carboxamide], for which the inhibition (as a rule, the relative decrease from the control value, in per cent) at 10 µM with HeLa (ovarian cancer) is at least 80%; in assay [1], at least 80%; in the assay with SW620 (colon cancer), at least 80%; in assay [2], at least 80%; in assay [3] it was 30 to 50%; in assay [4] it was at least 80%. Also, in the assay on HepG2 (liver cancer), the inhibition at 10 µM was at least 80%.

With `CO[C@]1(C)C(=O)C(=O)C=C2C1=CC=C1[C@@]2(C)CC[C@@]2(C)[C@@H]3C[C@](C)(CO)CC[C@]3(C)CC[C@]12C` [Compound A14, (4S,6bS,8aS,11R,12aR,12bS,14aR)-11-(hydroxymethyl)-4-methoxy-4,6b,8a,11,12b,14a-hexamethyl-4,6b,7,8,8a,9,10,11,12,12a,12b,13,14,14a-tetradecahydropicene-2,3-dione], the inhibition at 10 µM in the assay with HeLa (ovarian cancer) is 30 to 50%; in assay [1], under 30%; with SW620 (colon cancer), under 30%; in assay [2] it was under 30%; in assay [3] it was under 30%; in assay [4], under 30%. The inhibition at 10 µM with HepG2 (liver cancer) was under 30%.

Consider `CO[C@@]1(C)C2=CC=C3[C@@](C)(CC[C@@]4(C)[C@@H]5C[C@](C)(C(=O)O)CC[C@]5(C)CC[C@]34C)C2=CC(=O)[C@@H]1O` [Compound A15, (2R,4aS,6aS,9S,10R,12bR,14aS,14bR)-10-hydroxy-9-methoxy-2,4a,6a,9,12b,14a-hexamethyl-11-oxo-1,2,3,4,4a,5,6,6a,9,10,11,12b,13,14,14a,14b-hexadecahydropicene-2-carboxylic acid], for which the inhibition at 10 µM with HeLa (ovarian cancer) was 50 to 80%; in assay [1], at least 80%; with SW620 (colon cancer), 30 to 50%; in assay [2] it was under 30%; in assay [3], 50 to 80%; in assay [4], 50 to 80%. Moreover, the inhibition at 10 µM in the assay with HepG2 (liver cancer) was in the range of 30 to 50%.

Turning to `CO[C@@]1(C)C2=CC=C3[C@@](C)(CC[C@@]4(C)[C@@H]5C[C@](C)(C(=O)OCc6ccccc6)CC[C@]5(C)CC[C@]34C)C2=CC(=O)[C@@H]1O` [Compound A16, benzyl (2R,4aS,6aS,9S,10R,12bR,14aS,14bR)-10-hydroxy-9-methoxy-2,4a,6a,9,12b,14a-hexamethyl-11-oxo-1,2,3,4,4a,5,6,6a,9,10,11,12b,13,14,14a,14b-hexadecahydropicene-2-carboxylate], the inhibition at 10 µM with HeLa (ovarian cancer) is at least 80%; in assay [1], at least 80%; in the assay with SW620 (colon cancer), at least 80%; in assay [2], at least 80%; in assay [3] it was 50 to 80%; in assay [4], at least 80%. Moreover, the inhibition at 10 µM in the assay with HepG2 (liver cancer) is at least 80%.

As for `CNC(=O)[C@]1(C)CC[C@]2(C)CC[C@]3(C)C4=CC=C5C(=CC(=O)[C@H](O)[C@@]5(C)OC)[C@]4(C)CC[C@@]3(C)[C@@H]2C1` [Compound A17, (2R,4aS,6aS,9S,10R,12bR,14aS,14bR)-10-hydroxy-9-methoxy-N,2,4a,6a,9,12b,14a-heptamethyl-11-oxo-1,2,3,4,4a,5,6,6a,9,10,11,12b,13,14,14a,14b-hexadecahydropicene-2-carboxamide], the inhibition at 10 µM in the assay with HeLa (ovarian cancer) is 50 to 80%; in assay [1], at least 80%; in the assay with SW620 (colon cancer) it was at least 80%; in assay [2], 30 to 50%; in assay [3], 50 to 80%; in assay [4] it was at least 80%. Further, the inhibition at 10 µM with HepG2 (liver cancer) was at least 80%.

`CO[C@@]1(C)C2=CC=C3[C@@](C)(CC[C@@]4(C)[C@@H]5C[C@](C)(CO)CC[C@]5(C)CC[C@]34C)C2=CC(=O)[C@@H]1O` [Compound A18, (3R,4S,6bS,8aS,11R,12aR,12bS,14aR)-3-hydroxy-11-(hydroxymethyl)-4-methoxy-4,6b,8a,11,12b,14a-hexamethyl-2,3,4,6b,7,8,8a,9,10,11,12,12a,12b,13,14,14a-hexadecahydropicen-2-one]: the inhibition at 10 µM is at least 80% in the assay with HeLa (ovarian cancer); at least 80% in assay [1]; at least 80% in the assay on SW620 (colon cancer); 30 to 50% in assay [2]; 50 to 80% in assay [3]; at least 80% in assay [4]. In the assay with HepG2 (liver cancer), the inhibition at 10 µM is at least 80%.

In the case of `CO[C@@]1(C)C2=CC=C3[C@@](C)(CC[C@@]4(C)[C@@H]5C[C@](C)(C=O)CC[C@]5(C)CC[C@]34C)C2=CC(=O)[C@@H]1O` [Compound A19, (2R,4aS,6aS,9S,10R,12bR,14aS,14bR)-10-hydroxy-9-methoxy-2,4a,6a,9,12b,14a-hexamethyl-11-oxo-1,2,3,4,4a,5,6,6a,9,10,11,12b,13,14,14a,14b-hexadecahydropicene-2-carbaldehyde], the inhibition at 10 µM in the assay with HeLa (ovarian cancer) was at least 80%; in assay [1], 50 to 80%; in the assay with SW620 (colon cancer) it was 50 to 80%; in assay [2], 50 to 80%; in assay [3] it was 30 to 50%; in assay [4], at least 80%. Further, the inhibition at 10 µM with HepG2 (liver cancer) lay in the range of 50 to 80%.

Take `COC(=O)[C@]1(C)CC[C@]2(C)CC[C@]3(C)C4=CC=C5C(=CC(=O)[C@H](O)[C@@]5(C)OC)[C@]4(C)CC[C@@]3(C)[C@@H]2C1` [Compound A20, methyl (2R,4aS,6aS,9S,10R,12bR,14aS,14bR)-10-hydroxy-9-methoxy-2,4a,6a,9,12b,14a-hexamethyl-11-oxo-1,2,3,4,4a,5,6,6a,9,10,11,12b,13,14,14a,14b-hexadecahydropicene-2-carboxylate]: the inhibition at 10 µM in the assay on HeLa (ovarian cancer) is at least 80%; in assay [1] it was at least 80%; in the assay on SW620 (colon cancer) it was at least 80%; in assay [2] it was at least 80%; in assay [3], 50 to 80%; in assay [4], at least 80%. In the assay on HepG2 (liver cancer), the inhibition at 10 µM was at least 80%.

Consider `CO[C@@]1(C)C2CCC3[C@@](C)(CC[C@@]4(C)[C@@H]5C[C@](C)(C(=O)O)CC[C@]5(C)CC[C@]34C)C2=CC(=O)[C@@H]1O` (stereo partly drawn) [Compound A21, (2R,4aS,6aR,9S,10R,12bR,14aS,14bR)-10-hydroxy-9-methoxy-2,4a,6a,9,12b,14a-hexamethyl-11-oxo-1,2,3,4,4a,5,6,6a,6b,7,8,8a,9,10,11,12b,13,14,14a,14b-icosahydropicene-2-carboxylic acid], for which the inhibition at 10 µM (in the assay on HeLa (ovarian cancer); in assay [1]; in the assay with SW620 (colon cancer); in assay [2]; in assay [3]; in assay [4]) was under 30% each time. The inhibition at 10 µM in the assay on HepG2 (liver cancer) was under 30%.

As to `CCCC(=O)O[C@H]1C(=O)C=C2C(=CC=C3[C@@]2(C)CC[C@@]2(C)[C@@H]4C[C@](C)(C(=O)NC)CC[C@]4(C)CC[C@]32C)[C@]1(C)OC` [Compound A23, (3R,4S,6bS,8aS,11R,12aR,12bS,14aR)-4-methoxy-4,6b,8a,11,12b,14a-hexamethyl-11-(methylcarbamoyl)-2-oxo-2,3,4,6b,7,8,8a,9,10,11,12,12a,12b,13,14,14a-hexadecahydropicen-3-yl butyrate], the inhibition at 10 µM with HeLa (ovarian cancer) was at least 80%; in assay [1], at least 80%; in the assay with SW620 (colon cancer), at least 80%; in assay [2], at least 80%; in assay [3], 50 to 80%; in assay [4], at least 80%. Besides, in the assay with HepG2 (liver cancer), the inhibition at 10 µM was at least 80%.

The record behind these values is patent US12570687B2, “Triterpenoid compounds, pharmaceutical compositions thereof, and their use for treating a nuclear receptor subfamily 4 group a member 1-mediated disease” (NUCMITO PHARMACEUTICALS COMPANY LIMITED, priority 2019, dated 2026).
